How the values were obtained:
Test in all cases: Eurofins kinase profiling
Assay type in all cases: biochemical
[1] = molecular target: T1, Flt3(D835Y)(h) (Homo sapiens, UniProt P36888, D835Y); details: read-out: residual kinase activity Flt3(D835Y)(h)
T1 construct: purchased Eurofins KinaseProfiler
T1 sequence (P36888 27-993 D835Y): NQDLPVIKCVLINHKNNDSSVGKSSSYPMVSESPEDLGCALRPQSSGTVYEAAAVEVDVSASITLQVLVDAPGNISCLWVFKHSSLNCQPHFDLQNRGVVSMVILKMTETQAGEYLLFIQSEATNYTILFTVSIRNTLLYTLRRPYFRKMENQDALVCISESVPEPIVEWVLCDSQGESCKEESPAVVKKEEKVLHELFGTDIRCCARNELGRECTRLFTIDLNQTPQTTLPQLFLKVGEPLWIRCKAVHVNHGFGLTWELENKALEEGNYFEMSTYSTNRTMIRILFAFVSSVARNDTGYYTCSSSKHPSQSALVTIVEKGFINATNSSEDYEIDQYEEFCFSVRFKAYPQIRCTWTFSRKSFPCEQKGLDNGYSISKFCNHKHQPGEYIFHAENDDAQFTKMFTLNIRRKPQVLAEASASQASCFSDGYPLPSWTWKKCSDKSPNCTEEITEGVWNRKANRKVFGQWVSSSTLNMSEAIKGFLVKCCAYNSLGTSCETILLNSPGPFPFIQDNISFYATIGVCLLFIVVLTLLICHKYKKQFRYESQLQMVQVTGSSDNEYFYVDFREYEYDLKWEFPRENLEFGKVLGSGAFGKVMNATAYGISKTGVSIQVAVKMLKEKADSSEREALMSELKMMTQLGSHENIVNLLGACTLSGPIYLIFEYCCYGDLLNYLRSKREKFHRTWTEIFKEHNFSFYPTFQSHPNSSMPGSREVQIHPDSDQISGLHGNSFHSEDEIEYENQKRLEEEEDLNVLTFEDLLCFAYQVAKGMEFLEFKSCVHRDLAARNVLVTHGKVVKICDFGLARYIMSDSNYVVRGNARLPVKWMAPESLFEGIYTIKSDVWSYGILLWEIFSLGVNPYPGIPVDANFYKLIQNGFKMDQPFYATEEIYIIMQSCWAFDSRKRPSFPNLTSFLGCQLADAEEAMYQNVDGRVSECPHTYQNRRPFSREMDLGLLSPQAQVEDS
Experimental: (§1) The kinase profiling analysis was performed at Eurofins (Poitiers, France). A total of 110 kinase assays were carried out according to Eurofins’ standard protocols. For protein kinase assays, the kinase activity was measured using Eurofins’ KinaseProfiler radiometric assay. In this assay, a panel of kinases was incubated with the test compound SJP1602 at a concentration of 1 µM, and the kinase activity was determined using radiolabeled phosphate as a substrate. Lipid and atypical kinase assays were conducted using Eurofins’ homogeneous time-resolved fluorescence assay. The same panel of kinases was incubated with SJP1602 at a concentration of 1 µM, and the activity of lipid and atypical kinases was measured using this assay.

[2] = molecular target: T2, DAPK1(h) (Homo sapiens, UniProt P53355); details: read-out: residual kinase activity DAPK1(h)
T2 construct: purchased Eurofins KinaseProfiler
T2 sequence (P53355 whole entry): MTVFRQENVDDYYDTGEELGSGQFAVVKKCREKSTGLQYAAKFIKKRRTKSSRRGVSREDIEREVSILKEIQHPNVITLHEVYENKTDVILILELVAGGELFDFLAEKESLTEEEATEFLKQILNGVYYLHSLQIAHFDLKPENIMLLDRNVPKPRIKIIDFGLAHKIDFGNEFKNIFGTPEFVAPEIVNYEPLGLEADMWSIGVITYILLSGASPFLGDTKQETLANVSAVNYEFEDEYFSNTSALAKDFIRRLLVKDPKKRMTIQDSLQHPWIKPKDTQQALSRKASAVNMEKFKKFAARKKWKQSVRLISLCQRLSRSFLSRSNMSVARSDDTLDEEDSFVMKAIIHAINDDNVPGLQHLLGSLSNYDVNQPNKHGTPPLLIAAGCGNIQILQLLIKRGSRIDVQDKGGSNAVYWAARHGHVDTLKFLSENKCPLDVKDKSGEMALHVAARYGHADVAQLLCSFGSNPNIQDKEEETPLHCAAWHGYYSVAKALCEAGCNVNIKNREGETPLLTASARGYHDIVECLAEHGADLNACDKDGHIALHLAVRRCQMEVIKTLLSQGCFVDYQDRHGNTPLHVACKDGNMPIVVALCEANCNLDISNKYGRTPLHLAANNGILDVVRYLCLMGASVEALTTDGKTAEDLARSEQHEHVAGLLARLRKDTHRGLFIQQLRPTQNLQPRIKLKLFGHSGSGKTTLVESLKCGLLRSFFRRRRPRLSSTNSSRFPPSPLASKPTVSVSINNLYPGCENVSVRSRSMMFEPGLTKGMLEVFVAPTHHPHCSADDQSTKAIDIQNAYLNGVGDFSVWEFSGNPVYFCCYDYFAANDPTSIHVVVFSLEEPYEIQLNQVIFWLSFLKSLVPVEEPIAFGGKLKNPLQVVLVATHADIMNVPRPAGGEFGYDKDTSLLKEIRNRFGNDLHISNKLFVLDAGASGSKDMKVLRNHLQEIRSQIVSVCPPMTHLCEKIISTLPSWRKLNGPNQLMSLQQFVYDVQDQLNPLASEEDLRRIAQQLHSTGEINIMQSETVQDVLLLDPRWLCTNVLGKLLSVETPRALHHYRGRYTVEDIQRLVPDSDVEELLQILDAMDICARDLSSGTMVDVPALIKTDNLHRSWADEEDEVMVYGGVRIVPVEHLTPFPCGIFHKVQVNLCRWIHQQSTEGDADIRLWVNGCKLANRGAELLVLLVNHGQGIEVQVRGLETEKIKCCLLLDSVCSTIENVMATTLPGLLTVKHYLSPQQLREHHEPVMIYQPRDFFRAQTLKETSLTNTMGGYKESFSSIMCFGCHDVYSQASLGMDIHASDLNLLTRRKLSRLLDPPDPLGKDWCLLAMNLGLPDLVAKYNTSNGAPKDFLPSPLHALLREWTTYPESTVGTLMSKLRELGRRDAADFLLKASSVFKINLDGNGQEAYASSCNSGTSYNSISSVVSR
Experimental: as §1

[3] = molecular target: T3, ATR/ATRIP(h) (Homo sapiens, UniProt Q13535); details: read-out: residual kinase activity ATR/ATRIP(h)
T3 construct: purchased Eurofins KinaseProfiler
Experimental: as §1

[4] = molecular target: T4, TAK1(h) (Homo sapiens, UniProt O43318); details: read-out: residual kinase activity TAK1(h)
T4 construct: purchased Eurofins KinaseProfiler
T4 sequence (O43318 1-303 limits assumed): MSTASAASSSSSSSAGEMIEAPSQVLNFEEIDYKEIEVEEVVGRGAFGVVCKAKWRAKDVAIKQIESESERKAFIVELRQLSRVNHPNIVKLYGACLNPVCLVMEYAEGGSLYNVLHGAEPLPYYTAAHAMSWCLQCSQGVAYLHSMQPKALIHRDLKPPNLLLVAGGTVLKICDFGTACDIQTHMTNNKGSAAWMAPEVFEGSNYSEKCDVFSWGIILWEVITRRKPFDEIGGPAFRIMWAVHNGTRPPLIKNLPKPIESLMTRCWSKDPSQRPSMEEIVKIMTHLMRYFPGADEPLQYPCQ
Experimental: as §1

[5] = molecular target: T5, PKD2(h) (Homo sapiens, UniProt Q9BZL6); details: read-out: residual kinase activity PKD2(h)
T5 construct: purchased Eurofins KinaseProfiler
T5 sequence (Q9BZL6 1-878): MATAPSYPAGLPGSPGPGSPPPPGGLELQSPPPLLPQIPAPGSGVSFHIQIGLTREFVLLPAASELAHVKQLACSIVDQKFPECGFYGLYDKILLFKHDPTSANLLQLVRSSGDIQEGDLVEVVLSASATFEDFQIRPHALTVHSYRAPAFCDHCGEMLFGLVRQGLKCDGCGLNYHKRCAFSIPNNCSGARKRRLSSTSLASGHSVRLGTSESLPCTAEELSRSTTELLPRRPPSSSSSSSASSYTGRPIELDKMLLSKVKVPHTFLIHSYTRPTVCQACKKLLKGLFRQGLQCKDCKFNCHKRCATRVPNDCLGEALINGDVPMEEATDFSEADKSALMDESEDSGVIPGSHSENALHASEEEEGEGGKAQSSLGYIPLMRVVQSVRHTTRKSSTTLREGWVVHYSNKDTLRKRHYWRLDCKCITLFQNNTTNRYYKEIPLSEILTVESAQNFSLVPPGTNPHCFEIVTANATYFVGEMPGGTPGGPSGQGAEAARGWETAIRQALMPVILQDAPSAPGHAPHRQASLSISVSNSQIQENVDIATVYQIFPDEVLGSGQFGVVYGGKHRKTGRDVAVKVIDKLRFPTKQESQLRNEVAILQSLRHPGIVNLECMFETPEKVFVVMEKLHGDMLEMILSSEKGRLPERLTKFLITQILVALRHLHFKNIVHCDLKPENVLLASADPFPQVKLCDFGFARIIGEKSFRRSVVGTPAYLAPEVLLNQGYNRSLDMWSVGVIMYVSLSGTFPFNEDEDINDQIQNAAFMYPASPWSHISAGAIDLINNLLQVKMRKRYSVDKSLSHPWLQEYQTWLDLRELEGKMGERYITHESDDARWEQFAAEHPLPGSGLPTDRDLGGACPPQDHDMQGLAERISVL
Experimental: as §1

[6] = molecular target: T6, Hck(h) (Homo sapiens, UniProt P08631); details: read-out: residual kinase activity Hck(h)
T6 construct: purchased Eurofins KinaseProfiler
T6 sequence (P08631 whole entry): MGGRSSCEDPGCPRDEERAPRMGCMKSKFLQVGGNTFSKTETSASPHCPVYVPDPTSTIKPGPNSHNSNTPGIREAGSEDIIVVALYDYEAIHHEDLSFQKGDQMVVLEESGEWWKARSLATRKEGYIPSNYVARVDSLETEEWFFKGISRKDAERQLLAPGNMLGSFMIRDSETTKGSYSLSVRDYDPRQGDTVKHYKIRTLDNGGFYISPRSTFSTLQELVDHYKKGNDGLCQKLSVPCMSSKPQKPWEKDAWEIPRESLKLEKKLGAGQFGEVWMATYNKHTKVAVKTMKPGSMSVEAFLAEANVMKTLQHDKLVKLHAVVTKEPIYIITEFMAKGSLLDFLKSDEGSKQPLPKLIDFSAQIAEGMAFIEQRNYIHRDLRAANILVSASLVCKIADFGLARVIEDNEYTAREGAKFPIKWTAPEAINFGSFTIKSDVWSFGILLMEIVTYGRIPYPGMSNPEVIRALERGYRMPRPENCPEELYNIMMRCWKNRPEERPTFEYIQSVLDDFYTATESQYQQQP
Experimental: as §1

[7] = molecular target: T7, B-Raf(V599E)(h) (Homo sapiens, UniProt P15056, V600E); details: read-out: residual kinase activity B-Raf(V599E)(h)
T7 construct: purchased Eurofins KinaseProfiler
T7 sequence (P15056 417-766 V600E limits assumed): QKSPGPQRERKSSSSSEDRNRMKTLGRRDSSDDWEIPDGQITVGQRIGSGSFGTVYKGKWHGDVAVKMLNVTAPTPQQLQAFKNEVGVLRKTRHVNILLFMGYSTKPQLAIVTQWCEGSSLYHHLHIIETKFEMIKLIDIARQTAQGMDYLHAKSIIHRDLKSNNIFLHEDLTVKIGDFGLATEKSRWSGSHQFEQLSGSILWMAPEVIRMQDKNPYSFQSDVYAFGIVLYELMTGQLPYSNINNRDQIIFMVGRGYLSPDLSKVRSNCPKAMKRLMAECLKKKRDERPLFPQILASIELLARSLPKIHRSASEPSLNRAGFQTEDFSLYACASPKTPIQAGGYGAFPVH
Experimental: as §1

[8] = molecular target: T8, ZIPK(h) (Homo sapiens, UniProt O43293); details: read-out: residual kinase activity ZIPK(h)
T8 construct: purchased Eurofins KinaseProfiler
T8 sequence (O43293 whole entry): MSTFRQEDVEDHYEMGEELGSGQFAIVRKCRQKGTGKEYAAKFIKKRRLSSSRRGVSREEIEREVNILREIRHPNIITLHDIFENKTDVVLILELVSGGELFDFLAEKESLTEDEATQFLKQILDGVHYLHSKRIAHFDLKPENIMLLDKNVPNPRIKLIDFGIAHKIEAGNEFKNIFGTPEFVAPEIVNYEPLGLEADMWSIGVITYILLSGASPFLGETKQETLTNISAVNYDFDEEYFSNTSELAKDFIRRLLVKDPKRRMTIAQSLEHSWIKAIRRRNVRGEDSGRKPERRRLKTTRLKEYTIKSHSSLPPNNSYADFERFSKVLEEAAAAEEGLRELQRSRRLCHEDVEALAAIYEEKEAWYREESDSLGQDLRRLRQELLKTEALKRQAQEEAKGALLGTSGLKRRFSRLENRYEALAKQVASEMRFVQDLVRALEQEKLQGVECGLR
Experimental: as §1

[9] = molecular target: T9, FGFR2(h) (Homo sapiens, UniProt P21802); details: read-out: residual kinase activity FGFR2(h)
T9 construct: purchased Eurofins KinaseProfiler
T9 sequence (P21802 22-821): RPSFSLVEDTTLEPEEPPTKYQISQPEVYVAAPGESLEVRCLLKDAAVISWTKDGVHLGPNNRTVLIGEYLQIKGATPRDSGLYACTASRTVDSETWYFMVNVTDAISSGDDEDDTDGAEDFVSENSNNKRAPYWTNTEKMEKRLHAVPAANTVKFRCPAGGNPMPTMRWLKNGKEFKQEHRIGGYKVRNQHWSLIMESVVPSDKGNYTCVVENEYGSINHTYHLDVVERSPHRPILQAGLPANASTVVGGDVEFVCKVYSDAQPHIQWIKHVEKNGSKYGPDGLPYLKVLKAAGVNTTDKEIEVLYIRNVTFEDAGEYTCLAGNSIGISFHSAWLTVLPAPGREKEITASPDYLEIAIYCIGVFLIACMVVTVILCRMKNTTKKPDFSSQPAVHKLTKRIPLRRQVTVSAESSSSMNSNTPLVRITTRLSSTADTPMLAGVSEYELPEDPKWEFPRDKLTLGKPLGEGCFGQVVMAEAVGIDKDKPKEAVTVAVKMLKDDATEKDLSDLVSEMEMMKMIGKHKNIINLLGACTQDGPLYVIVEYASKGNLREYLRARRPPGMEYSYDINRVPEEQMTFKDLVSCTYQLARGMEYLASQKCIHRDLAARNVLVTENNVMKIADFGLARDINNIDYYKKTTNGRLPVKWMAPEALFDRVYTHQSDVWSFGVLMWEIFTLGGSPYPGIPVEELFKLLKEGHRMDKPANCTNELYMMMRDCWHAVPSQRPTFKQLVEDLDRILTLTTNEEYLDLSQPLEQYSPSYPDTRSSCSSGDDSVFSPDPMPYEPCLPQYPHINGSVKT
Experimental: as §1

CONC(=O)c1ccccc1Nc1cc(Nc2cc(C)nn2C(C)C)ncc1Cl [GSK2256098]
remaining activity at 1 µM [1]: 76% | remaining activity at 1 µM [2]: 83% | remaining activity at 1 µM [3]: 101% | remaining activity at 1 µM [4]: 95% | remaining activity at 1 µM [5]: 90% | remaining activity at 1 µM [6]: 100% | remaining activity at 1 µM [7]: 67% | remaining activity at 1 µM [8]: 93% | remaining activity at 1 µM [9]: 98%

CNC(=O)c1ccc(Nc2ncc(C(F)(F)F)c(NCc3nccnc3N(C)S(C)(=O)=O)n2)cc1 [VS-6063, Defactinib]
remaining activity at 1 µM [1]: 7% | remaining activity at 1 µM [2]: 94% | remaining activity at 1 µM [3]: 92% | remaining activity at 1 µM [4]: 71% | remaining activity at 1 µM [5]: 116% | remaining activity at 1 µM [6]: 99% | remaining activity at 1 µM [7]: 89% | remaining activity at 1 µM [8]: 97% | remaining activity at 1 µM [9]: 46%

CNC(=O)c1cccc(C)c1Nc1nc(Nc2ccc(N3CCN(C4C5CC6CC4CC(O)(C6)C5)CC3)cc2OC)ncc1C(F)(F)F (stereo not drawn) [SJP1602, 2-((2-((4-(4-((2s,5r)-5-hydroxyadamantan-2-yl)piperazin-1-yl)-2-methoxyphenyl)amino)-5-(trifluoromethyl)pyrimidin-4-yl)amino)-N,3-dimethylbenzamide]
remaining activity at 1 µM [1]: 87% | remaining activity at 1 µM [2]: 108% | remaining activity at 1 µM [3]: 97% | remaining activity at 1 µM [4]: 113% | remaining activity at 1 µM [5]: 116% | remaining activity at 1 µM [6]: 105% | remaining activity at 1 µM [7]: 105% | remaining activity at 1 µM [8]: 100% | remaining activity at 1 µM [9]: 90%
